In US9828393B2, “Silylalkyloxyaryl compounds and methods for treating cancer” (THE REGENTS OF THE UNIVERSITY OF COLORADO, a body corporate, priority 2013, dated 2017):
Read-outs that look alike come from different tables or passages of the source.

Assays:
HL-60(TB) = assay: NCI-60 cell line screen (SRB), HL-60(TB); format: cell-based, human
Method: (§1) Drug sensitivity data are provided as GI50s (concentrations required to inhibit growth by 50%). The first row of the text file identifies cell lines, separated by tabs. Subsequent rows contain compound number, compound name, and GI50 for each cell line, each separated by a tab. […] For a typical screening experiment, cells are inoculated into 96 well microtiter plates in 100 μL at plating densities ranging from 5,000 to 40,000 cells/well depending on the doubling time of individual cell lines. After cell inoculation, the microtiter plates are incubated at 37° C., 5% CO2, 95% air and 100% relative humidity for 24 h prior to addition of experimental drugs. After 24 h, two plates of each cell line are fixed in situ with TCA, to represent a measurement of the cell population for each cell line at the time of drug addition (Tz). Experimental drugs are solubilized in dimethyl sulfoxide at 400-fold the desired final maximum test concentration and stored frozen prior to use. At the time of drug addition, an aliquot of frozen concentrate is thawed and diluted to twice the desired final maximum test concentration with complete medium containing 50 μg/ml gentamicin. Additional four, 10-fold or one-half log serial dilutions are made to provide a total of five drug concentrations plus control. Aliquots of 100 μl of these different drug dilutions are added to the appropriate microtiter wells already containing 100 μl of medium, resulting in the required final drug concentrations. Following drug addition, the plates are incubated for an additional 48 h at 37° C., 5% CO2, 95% air, and 100% relative humidity. For adherent cells, the assay is terminated by the addition of cold TCA. Cells are fixed in situ by the gentle addition of 50 μl of cold 50% (w/v) TCA (final concentration, 10% TCA) and incubated for 60 minutes at 4° C. The supernatant is discarded, and the plates are washed five times with tap water and air dried. Sulforhodamine B (SRB) solution (100 μl) at 0.4% (w/v) in 1% acetic acid is added to each well, and plates are incubated for 10 minutes at room temperature. After staining, unbound dye is removed by washing five times with 1% acetic acid and the plates are air dried. Bound stain is subsequently solubilized with 10 mM trizma base, and the absorbance is read on an automated plate reader at a wavelength of 515 nm. For suspension cells, the methodology is the same except that the assay is terminated by fixing settled cells at the bottom of the wells by gently adding 50 μl of 80% TCA (final concentration, 16% TCA). Using the seven absorbance measurements [time zero, (Tz), control growth, (C), and test growth in the presence of drug at the five concentration levels (Ti)], the percentage growth is calculated at each of the drug concentrations levels. […]

K-562 = assay: NCI-60 cell line screen (SRB), K-562; format: cell-based, human
Method: as §1

MOLT-4 = assay: NCI-60 cell line screen (SRB), MOLT-4; format: cell-based, human
Method: as §1

RPMI-8226 = assay: NCI-60 cell line screen (SRB), RPMI-8226; format: cell-based, human
Method: as §1

NCI-H522 = assay: NCI-60 cell line screen (SRB), NCI-H522; format: cell-based, human
Method: as §1

SNB-19 = assay: NCI-60 cell line screen (SRB), SNB-19; format: cell-based, human
Method: as §1

SNB-75 = assay: NCI-60 cell line screen (SRB), SNB-75; format: cell-based; conditions: Homo sapiens
Method: as §1, with “temperature.” for “temperature. After staining, unbound dye is removed by washing five times with 1% acetic acid and the plates are air dried. Bound stain is subsequently solubilized with 10 mM trizma base, and the absorbance is read on an automated plate reader at a wavelength of 515 nm. For suspension cells, the methodology is the same except that the assay is terminated by fixing settled cells at the bottom of the wells by gently adding 50 μl of 80% TCA (final concentration, 16% TCA). Using the seven absorbance measurements [time zero, (Tz), control growth, (C), and test growth in the presence of drug at the five concentration levels (Ti)], the percentage growth is calculated at each of the drug concentrations levels.”

MALME-3M = assay: NCI-60 cell line screen (SRB), MALME-3M; format: cell-based, human
Method: as §1

UACC-62 = assay: NCI-60 cell line screen (SRB), UACC-62; format: cell-based, human
Method: as §1

IGROV1 = assay: NCI-60 cell line screen (SRB), IGROV1; format: cell-based, human
Method: as §1

786-0 = assay: NCI-60 cell line screen (SRB), 786-0; format: cell-based, human
Method: as §1

TK-10 = assay: NCI-60 cell line screen (SRB), TK-10; format: cell-based, human
Method: as §1

UO-31 = assay: NCI-60 cell line screen (SRB), UO-31; format: cell-based, human
Method: as §1

Renal Cancer cell lines = assay: NCI-60 cell line screen, Renal Cancer panel average; format: cell-based, human; conditions: read-out: GI50 Average
Method: as §1

DU145 = assay: NCI-60 cell line screen (SRB), DU145; format: cell-based, human
Method: as §1

HS 578T = assay: NCI-60 cell line screen (SRB), HS 578T; format: cell-based, human
Method: as §1

T-47D = assay: NCI-60 cell line screen (SRB), T-47D; format: cell-based, human
Method: as §1

Breast Cancer cell lines = assay: NCI-60 cell line screen, Breast Cancer panel average; format: cell-based, human; conditions: read-out: GI50 Average
Method: as §1

[1] = target: EZH2 (Enhancer of Zeste Homologue 2), a Histone H3 Lys 27 (H3K27) methyltransferase (Homo sapiens, UniProt Q15910); assay: OIDD in vitro target-based assay, EZH2 inhibitory activity; format: biochemical; conditions: OIDD screen; FIG. 1
Method: An organosilicon compound of the invention (GH1503) was tested using the in vitro target-based assays through an open innovation drug discovery program (OIDD). The organosilicon compound tested was given OIDD number 2351349879. […] This enzyme plays a critical role in regulating gene expression and is highly expressed in a wide range of cancer types, including bladder, breast, colon, lung, melanoma, pancreatic cancer, melanoma, sarcoma and lymphomas.

Chain of EZH2 (Enhancer of Zeste Homologue 2), a Histone H3 Lys 27 (H3K27) methyltransferase (Q15910 whole entry): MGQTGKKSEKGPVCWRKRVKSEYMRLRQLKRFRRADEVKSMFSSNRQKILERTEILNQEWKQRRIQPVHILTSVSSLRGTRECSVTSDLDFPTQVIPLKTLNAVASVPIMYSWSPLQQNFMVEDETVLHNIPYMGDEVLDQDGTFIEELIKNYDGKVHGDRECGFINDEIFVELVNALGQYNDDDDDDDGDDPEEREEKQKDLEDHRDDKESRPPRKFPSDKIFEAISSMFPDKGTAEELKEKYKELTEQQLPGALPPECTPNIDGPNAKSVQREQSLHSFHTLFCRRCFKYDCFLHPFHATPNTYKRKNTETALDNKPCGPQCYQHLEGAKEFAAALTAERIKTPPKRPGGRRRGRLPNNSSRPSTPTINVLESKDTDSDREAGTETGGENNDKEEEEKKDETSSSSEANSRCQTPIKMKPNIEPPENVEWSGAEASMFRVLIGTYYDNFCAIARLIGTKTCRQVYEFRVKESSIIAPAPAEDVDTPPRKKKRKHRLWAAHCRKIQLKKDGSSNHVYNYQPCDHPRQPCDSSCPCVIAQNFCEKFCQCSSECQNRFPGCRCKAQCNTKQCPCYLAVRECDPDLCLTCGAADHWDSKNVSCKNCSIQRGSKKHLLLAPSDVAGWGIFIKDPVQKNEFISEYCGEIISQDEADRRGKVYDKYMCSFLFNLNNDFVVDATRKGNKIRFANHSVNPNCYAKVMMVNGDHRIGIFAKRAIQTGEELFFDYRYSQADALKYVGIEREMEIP
Chain of EZH2 (Enhancer of Zeste Homologue 2), a Histone H3 Lys 27 (H3K27) methyltransferase (O75530 whole entry partner): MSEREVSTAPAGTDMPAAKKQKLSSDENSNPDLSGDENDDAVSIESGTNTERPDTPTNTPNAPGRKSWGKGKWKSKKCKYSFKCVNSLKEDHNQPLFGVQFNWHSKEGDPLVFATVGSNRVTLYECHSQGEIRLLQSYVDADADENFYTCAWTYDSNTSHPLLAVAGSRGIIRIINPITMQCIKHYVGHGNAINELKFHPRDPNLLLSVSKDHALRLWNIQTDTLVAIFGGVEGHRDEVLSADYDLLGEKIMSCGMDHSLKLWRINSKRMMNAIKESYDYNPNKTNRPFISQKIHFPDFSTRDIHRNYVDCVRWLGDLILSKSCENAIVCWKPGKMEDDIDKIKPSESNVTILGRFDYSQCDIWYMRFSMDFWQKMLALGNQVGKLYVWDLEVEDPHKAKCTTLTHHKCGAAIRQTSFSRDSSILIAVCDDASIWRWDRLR
Chain of EZH2 (Enhancer of Zeste Homologue 2), a Histone H3 Lys 27 (H3K27) methyltransferase (Q15022 whole entry partner): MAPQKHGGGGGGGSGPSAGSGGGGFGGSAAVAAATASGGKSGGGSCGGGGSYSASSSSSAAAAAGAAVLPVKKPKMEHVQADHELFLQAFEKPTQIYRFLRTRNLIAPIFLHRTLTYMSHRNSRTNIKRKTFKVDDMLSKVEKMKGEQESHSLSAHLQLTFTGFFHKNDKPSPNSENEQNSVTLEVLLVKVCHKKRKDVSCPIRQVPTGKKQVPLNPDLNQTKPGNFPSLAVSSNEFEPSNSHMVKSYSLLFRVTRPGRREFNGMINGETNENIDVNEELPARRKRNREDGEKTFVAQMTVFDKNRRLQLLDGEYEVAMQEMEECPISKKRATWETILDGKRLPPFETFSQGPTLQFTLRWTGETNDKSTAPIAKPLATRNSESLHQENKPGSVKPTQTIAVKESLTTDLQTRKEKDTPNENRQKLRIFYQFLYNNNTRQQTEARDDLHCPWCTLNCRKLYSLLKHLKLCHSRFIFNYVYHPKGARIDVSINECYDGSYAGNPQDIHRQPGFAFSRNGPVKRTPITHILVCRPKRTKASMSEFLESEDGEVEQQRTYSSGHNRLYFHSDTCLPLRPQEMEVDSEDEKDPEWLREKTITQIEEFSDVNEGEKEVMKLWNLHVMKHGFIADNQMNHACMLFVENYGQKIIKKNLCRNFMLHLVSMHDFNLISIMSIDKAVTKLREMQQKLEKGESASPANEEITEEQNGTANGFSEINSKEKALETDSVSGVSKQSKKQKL

SMILES | GI50 (HL-60(TB); Homo sapiens, HL-60, 48 h) | GI50 (K-562; Homo sapiens, K562, 48 h) | GI50 (MOLT-4; Homo sapiens, MOLT-4, 48 h) | GI50 (RPMI-8226; Homo sapiens, RPMI-8226, 48 h) | GI50 (NCI-H522; Homo sapiens, NCI-H522, 48 h) | GI50 (SNB-19; Homo sapiens, SNB-19, 48 h) | GI50 (SNB-75; SNB-75, 48 h) | GI50 (MALME-3M; Homo sapiens, Malme-3M, 48 h) | GI50 (UACC-62; Homo sapiens, UACC-62, 48 h) | GI50 (IGROV1; Homo sapiens, IGROV-1, 48 h) | GI50 (786-0; Homo sapiens, 786-0, 48 h) | GI50 (TK-10; Homo sapiens, TK-10, 48 h) | GI50 (UO-31; Homo sapiens, UO-31, 48 h) | GI50 (Renal Cancer cell lines; Homo sapiens) | GI50 (DU145; Homo sapiens, DU-145, 48 h) | GI50 (HS 578T; Homo sapiens, Hs-578T, 48 h) | GI50 (T-47D; Homo sapiens, T47D, 48 h) | GI50 (Breast Cancer cell lines; Homo sapiens) | also measured
CC1(C)CC(NC(=O)[C@H](Cc2ccc(OCc3c(Cl)cccc3Cl)cc2)NC(=O)c2ccc(OCCC[Si](C)(C)C)cc2)CC(C)(C)N1 [GH1501, N^α-{4-[3-(trimethylsilyl)propoxy]-benzoyl}-N-(2,2,6,6-tetramethylpiperidin-4-yl)-[O-(2,6-dichlorobenzyl)-L-tyrosinamide]] | 813 nM | 322 nM | 353 nM | 1320 nM | 1820 nM | 1720 nM | 1340 nM | 1460 nM | 1490 nM | 1200 nM | 369 nM | 1850 nM | 1520 nM | 1280 nM | 347 nM | 1920 nM | 1900 nM | 1460 nM | –
CCCC[Si](C)(C)COc1ccc(C(=O)N[C@@H](Cc2ccc(OCc3c(Cl)cccc3Cl)cc2)C(=O)NC2CC(C)(C)NC(C)(C)C2)cc1 [GH1503, N^α-{4-[(butyldimethylsilyl)methoxy]-benzoyl}-N-(2,2,6,6-tetramethylpiperidin-4-yl)-[O-(2,6-dichlorobenzyl)-L-tyrosinamide]] | – | – | – | – | – | – | – | – | – | – | – | – | – | – | – | – | – | – | GI50 (HL-60(TB); Homo sapiens, Leukemia, HL-60(TB), 48 h drug incubation, read-out: GI50): 790 nM; GI50 (K-562; Homo sapiens, K562, Leukemia, K-562, 48 h drug incubation, read-out: GI50): 333 nM; GI50 (MOLT-4; Homo sapiens, Leukemia, MOLT-4, 48 h drug incubation, read-out: GI50): 315 nM; GI50 (RPMI-8226; Homo sapiens, Leukemia, RPMI-8226, 48 h drug incubation, read-out: GI50): 893 nM; GI50 (NCI-H522; Homo sapiens, Non-Small Cell Lung Cancer, NCI-H522, 48 h drug incubation, read-out: GI50): 1970 nM; GI50 (SNB-19; Homo sapiens, CNS Cancer, SNB-19, 48 h drug incubation, read-out: GI50): 1600 nM; GI50 (SNB-75; CNS Cancer, SNB-75, 48 h drug incubation, read-out: GI50): 1350 nM; GI50 (MALME-3M; Homo sapiens, Melanoma, MALME-3M, 48 h drug incubation, read-out: GI50): 1200 nM; GI50 (UACC-62; Homo sapiens, Melanoma, UACC-62, 48 h drug incubation, read-out: GI50): 1500 nM; GI50 (IGROV1; Homo sapiens, IGROV-1, Ovarian Cancer, IGROV1, 48 h drug incubation, read-out: GI50): 704 nM; GI50 (786-0; Homo sapiens, Renal Cancer, 786-0, 48 h drug incubation, read-out: GI50): 468 nM; GI50 (TK-10; Homo sapiens, Renal Cancer, TK-10, 48 h drug incubation, read-out: GI50): 1890 nM; GI50 (UO-31; Homo sapiens, Renal Cancer, UO-31, 48 h drug incubation, read-out: GI50): 1500 nM; GI50 (Renal Cancer cell lines; Homo sapiens, average over Renal Cancer panel): 1050 nM; GI50 (DU145; Homo sapiens, DU-145, Prostate Cancer, DU145, 48 h drug incubation, read-out: GI50): 274 nM; GI50 (HS 578T; Homo sapiens, Breast Cancer, HS 578T, 48 h drug incubation, read-out: GI50): 2010 nM; GI50 (T-47D; Homo sapiens, T47D, Breast Cancer, T-47D, 48 h drug incubation, read-out: GI50): 1840 nM; GI50 (Breast Cancer cell lines; Homo sapiens, average over Breast Cancer panel): 1390 nM; IC50 [1]: in the micromolar range
CCCC[Si](C)(C)COc1ccc(C(=O)N[C@@H](Cc2ccc(-c3ccccc3)cc2)C(=O)NC2CC(C)(C)NC(C)(C)C2)cc1 [GH1504, N^α-{4-[(butyldimethylsilyl)methoxy]-benzoyl}-N-(2,2,6,6-tetramethylpiperidin-4-yl)-(4-phenyl-L-phenylalaninamide)] | 1220 nM | 386 nM | 775 nM | 1950 nM | 1060 nM | 1550 nM | 1630 nM | 1750 nM | 1150 nM | 1640 nM | 780 nM | 1110 nM | 1550 nM | 1010 nM | 368 nM | 1850 nM | 1820 nM | 1170 nM | –
CCOP(=O)(OCC)C(NC(=O)[C@H](Cc1ccc(-c2ccccc2)cc1)NC(=O)c1ccc(OCCC[Si](C)(C)C)cc1)P(=O)(OCC)OCC [GH1505, N^α-{4-[3-(trimethylsilyl)propoxy]-benzoyl}-N-[bis(dietoxyphosphoryl)methyl]-(4-phenyl-L-phenylalaninamide)] | – | – | – | – | – | – | – | – | – | – | – | – | – | – | – | – | – | – | GI50 (HL-60(TB); Leukemia, HL-60(TB), 48 h drug incubation, read-out: GI50): 2940 nM; GI50 (K-562; Leukemia, K-562, 48 h drug incubation, read-out: GI50): 3460 nM; GI50 (MOLT-4; Leukemia, MOLT-4, 48 h drug incubation, read-out: GI50): 2860 nM; GI50 (RPMI-8226; Leukemia, RPMI-8226, 48 h drug incubation, read-out: GI50): 1970 nM; GI50 (NCI-H522; Non-Small Cell Lung Cancer, NCI-H522, 48 h drug incubation, read-out: GI50): 2020 nM; GI50 (SNB-19; CNS Cancer, SNB-19, 48 h drug incubation, read-out: GI50): 2060 nM; GI50 (MALME-3M; Melanoma, MALME-3M, 48 h drug incubation, read-out: GI50): 1930 nM; GI50 (UACC-62; Melanoma, UACC-62, 48 h drug incubation, read-out: GI50): 1620 nM; GI50 (IGROV1; Ovarian Cancer, IGROV1, 48 h drug incubation, read-out: GI50): 3220 nM; GI50 (786-0; Renal Cancer, 786-0, 48 h drug incubation, read-out: GI50): 2760 nM; GI50 (TK-10; Renal Cancer, TK-10, 48 h drug incubation, read-out: GI50): 2500 nM; GI50 (UO-31; Renal Cancer, UO-31, 48 h drug incubation, read-out: GI50): 2770 nM; GI50 (Renal Cancer cell lines; average over Renal Cancer panel): 2550 nM; GI50 (DU145; Prostate Cancer, DU145, 48 h drug incubation, read-out: GI50): 1930 nM; GI50 (HS 578T; Breast Cancer, HS 578T, 48 h drug incubation, read-out: GI50): 2610 nM; GI50 (T-47D; Breast Cancer, T-47D, 48 h drug incubation, read-out: GI50): 3100 nM; GI50 (Breast Cancer cell lines; average over Breast Cancer panel): 2170 nM
